Assay results from patent publication US12370143B2, “Compound or salt thereof and lipid particles” (FUJIFILM Corporation, priority 2018, dated 2025).
pIC50: −log10 of the molar value.

Tests used:
[1] = Encapsulation rate of siRNA in nucleic acid lipid particles (Luc2-siRNA); format: physicochemical; conditions: compound/DSPC/cholesterol/DMG-PEG2000 50/10/38.5/1.5
Protocol: (§1) The compounds described in Table 2, L-α-distearoylphosphatidylcholine (trade name: COATSOME® MC-8080; NOF corporation), cholesterol (trade name: Choesterol HP; NIPPON FINE CHEMICAL CO., LTD.), and 1,2-dimyristoyl-rac-glycero-3-(methylpolyoxyethylene 2000) (hereinafter, called DMG-PEG2000) (trade name: SUNBRIGHT® GM-020; NOF corporation) were dissolved in ethanol at a molar ratio of 50/10/38.5/1.5 such that the total lipid concentration became 20 mmol/L, thereby obtaining an oil phase.
(§2) An aqueous nucleic acid solution obtained by dissolving 5 mg of Luc2-siRNA having the sequence described in Biomacromolecules (2013) 14, p. 3905 in 1 mL of sterile water was diluted with 10 mmol/L acetate buffer having a pH 4 such that the nucleic acid concentration became 19.7 μmol/L, thereby obtaining a water phase. Then, the water phase and the oil phase were mixed together by a micromixer (see JP5288254B) using a syringe pump such that the volume ratio of water phase:oil phase became 3:1 (final ratio of siRNA/lipid=339 (mol/mol)), and the mixed solution was diluted 2× with PBS, thereby obtaining a dispersion liquid of nucleic acid lipid particles. The dispersion liquid was dialyzed (Slide-A-Lyzer G2, MWCO: 10 kD, Thermo Fisher Scientific) using a phosphate buffered saline such that ethanol was removed, thereby obtaining nucleic acid lipid particles.
A 3 mol/L aqueous sodium acetate solution (30 μL) and 9 μL of glycogen were added to 60 μL of the lipid particles retaining nucleic acids, and then 1.5 mL of ethanol was added thereto such that only the nucleic acids were precipitated while the lipid was dissolved. Then, the supernatant was removed by centrifugation. After the precipitates were air-dried for 15 minutes or longer, water was added thereto such that the precipitates were redissolved, and the concentration thereof was measured using Nanodrop NF1000 (Thermo Fisher Scientific), thereby quantifying the total nucleic acid concentration.
The nucleic acid concentration was quantified using a Quant-iT RiboGreen RNA Assay Kit (Thermo Fisher Scientific) according to the protocol. First, a 20×TE buffer included in the above kit was diluted with water, thereby obtaining a 1×TE buffer. TE represents Tris/EDTA (ethylenediaminetetraacetic acid). In order to quantify only the nucleic acid in the outer water phase, the dispersion liquid of lipid particles retaining nucleic acids was diluted 10,000× with the 1×TE buffer.
The 10,000× diluted dispersion liquid of lipid particles (100 μL) was put in a 96-well plate, then 100 μL of a RiboGreen reagent (reagent included in the Quanti-iT Ribogreen RNA Assay Kit described above) diluted 2000× with the 1×TE buffer was added to a sample, and fluorescence (excitation wavelength: 485 nm, fluorescence wavelength: 535 nm) was measured using a plate reader Infinit EF200 (TECAN), thereby quantifying the nucleic acid concentration in the outer water phase.
By using the total nucleic acid concentration obtained through the above steps and the quantified nucleic acid concentration in the outer water phase, the nucleic acid encapsulation rate of the nucleic acid lipid particles was calculated according to the following Equation. Nucleic acid encapsulation rate (%)=(total nucleic acid concentration−nucleic acid concentration in outer water phase)/total nucleic acid concentration×100 The results are shown in Table 2.

[2] = Particle size of nucleic acid lipid particles (Luc2-siRNA); format: physicochemical; conditions: compound/DSPC/cholesterol/DMG-PEG2000 50/10/38.5/1.5
Protocol: By using the dispersion liquid of lipid particles as it was, the particle size of the lipid particles was measured using a zeta potential/particle size measurement system ELS-Z2 (Otsuka Electronics Co., Ltd.).
as §1, §2
The particle size of the nucleic acid lipid particles was measured by the same method as that in <Preparation of lipid particles>.

[3] = test system: DMS273 cells constantly expressing Luc; experiment: Target reporter protein (Luc) knockdown in cell, reporter protein assay; format: cell-based; conditions: Homo sapiens, DMS-273; Luc2-siRNA lipid particles using the compound; siRNA 0.1 to 100 nmol/L; concentration at which Luc expression is knocked down to 50%; read-out: IC50
Protocol: The nucleic acid lipid particles prepared by the same method as that in <Preparation of nucleic acid lipid particles> by using the compounds described in Table 3 were evaluated by reporter assay by the following method.
By using pGL4.50 Luc2 (E1310 Promega), DMS273 cells (human small cell lung cancer) (European Collection of Authenticated Cell Cultures) constantly expressing Luc were prepared. RPMI (Gibco) (10% FBS (Gibco), 1% Penicillin-Streptomycin (Gibco), and 200 μg/mL Hygromycin (Wako)) was used as a culture medium. DMS273 cells (2.0×10^3) constantly expressing luciferase (Luc) were seeded in a 96-well plate and cultured in a 5% CO2 incubator for 24 hours, and then the medium was replaced. Then, 10 μL of each of the dispersion liquids of lipid particles diluted with PBS (Gibco) to yield a concentration of 1 to 1,000 nmol/L was added to the 96-well plate, and the final concentration was adjusted to 0.1 to 100 nmol/L (total amount of liquid: 110 μl). Thereafter, the cells were cultured in a 5% CO2 incubator for 24 hours, the medium was then replaced, and the cells were further cultured for 24 hours.
After the viable cell count was determined, the expression amount of Luc was quantified using a Steady Glo assay kit (Promega), and the knockdown efficiency was calculated according to the following equation. Then, the IC50 concentration at which the expression amount of Luc was knocked down to 50% was calculated.

Row | SMILES | Nucleic acid encapsulation rate [1] | Particle size (nm) [2] | pIC50 [3]
1 | CCCCC/C=C\C/C=C\CCCCCCCCN(CCCCCCCC/C=C\C/C=C\CCCCC)C(=O)CCN(C)CCN(C)C [Comparative Example 7, 3-((2-(dimethylamino)ethyl)(methyl)amino)-N,N-di((9Z,12Z)-octadeca-9,12-dien-1-yl)propanamide, reference compound] | 87% | 71.9 nm | < 7.00
2 | CCCCC/C=C\C/C=C\CCCCCCCCN(CCCCCCCC/C=C\C/C=C\CCCCC)C(=O)OC1CCN(CCN(C)C)CC1 [Example 3, 1-(2-(Dimethylamino)ethyl)piperidin-4-yl di((9Z,12Z)-octadeca-9,12-dien-1-yl)carbamate] | 100% | 83.6 nm | 7.37
3 | CCCCC/C=C\C/C=C\CCCCCCCCN(CCCCCCCC/C=C\C/C=C\CCCCC)C(=O)OC1CCCN(CCN(C)C)C1 (stereo not drawn) [Example 4, 1-(2-(Dimethylamino)ethyl)piperidin-3-yl di((9Z,12Z)-octadeca-9,12-dien-1-yl)carbamate] | 81% | 66.1 nm | 8.00
4 | CCCCC/C=C\C/C=C\CCCCCCCCN(CCCCCCCC/C=C\C/C=C\CCCCC)C(=O)OCCN(C)CCN(CC)CC [Example 7, 2-((2-(Diethylamino)ethyl)(methyl)amino)ethyl di((9Z,12Z)-octadeca-9,12-dien-1-yl)carbamate] | 84% | 98.6 nm | 7.85
5 | CCCCC/C=C\C/C=C\CCCCCCCCC(CCCCCCCC/C=C\C/C=C\CCCCC)OC(=O)OCCN(C)CCN(C)C [Example 20, 2-((2-(dimethylamino)ethyl)(methyl)amino)ethyl((6Z,9Z,28Z,31Z)-heptatriaconta-6,9,28,31-tetraen-19-yl)carbonate] | 84% | 101.6 nm | 7.82
6 | CCCCC/C=C\C/C=C\CCCCCCCCC(CCCCCCCC/C=C\C/C=C\CCCCC)OC(=O)OCCN(CCN(C)C)C(C)C [Example 25, 2-((2-(Dimethylamino)ethyl)(isopropyl)amino)ethyl((6Z,9Z,28Z,31Z)-heptatriaconta-6,9,28,31-tetraen-19-yl)carbonate] | 76% | 68.5 nm | 7.80
7 | CCCCC/C=C\C/C=C\CCCCCCCCC(CCCCCCCC/C=C\C/C=C\CCCCC)OC(=O)OCCN(C)CCN [Example 26] | 97% | 209.8 nm | 7.52
8 | CCCCC/C=C\C/C=C\CCCCCCCCC(CCCCCCCC/C=C\C/C=C\CCCCC)OC(=O)OCCN(C)CCN(C)CCO [Example 27, (6Z,9Z,28Z,31Z)-heptatriaconta-6,9,28,31-tetraen-19-yl(2-((2-((2-hydroxyethyl)(methyl)amino)ethyl)(methyl)amino)ethyl)carbonate] | 75% | 75.2 nm | 7.51
9 | CCCCC/C=C\C/C=C\CCCCCCCC(CCCCCCCCCC)OC(=O)OCCN(C)CCN(C)C (stereo not drawn) [Example 29, 2-((2-(Dimethylamino)ethyl)(methyl)amino)ethyl((19Z,22Z)-octacosa-19,22-dien-11-yl)carbonate] | 77% | 70.1 nm | 7.72
10 | CCCCC/C=C\C/C=C\CCCCCCCC(CCCCCCCCCC)OC(=O)OCCN(CC)CCN(C)C (stereo not drawn) [Example 33, 2-((2-(Dimethylamino)ethyl)(ethyl)amino)ethyl((19Z,22Z)-octacosa-19,22-dien-11-yl)carbonate] | 87% | 67.9 nm | 7.92
11 | CCCCC/C=C\C/C=C\CCCCCCCCC(CCCCCCCC/C=C\C/C=C\CCCCC)OC(=O)OCCN(CCCCCCCCCCCC)CCN(C)C [Example 53] | 78% | 81 nm | 8.05
12 | CCCCCCC(CCCC)COC(=O)CCCCCCCCC(CCCCCC)OC(=O)OCCN(CCN(CC)CC)C(C)C (stereo not drawn) [Example 84, 2-butyloctyl 3-ethyl-12-hexyl-6-isopropyl-10-oxo-9,11-dioxa-3,6-diazahenicosan-21-oate] | 79% | 81 nm | 7.52
13 | CCCCCCC(CCCC)COC(=O)CCCC(CCCCCC)OC(=O)OCCN(CCO)CCN(CC)CC (stereo not drawn) [Example 101, 2-Butyloctyl 3-ethyl-12-hexyl-6-(2-hydroxyethyl)-10-oxo-9,11-dioxa-3,6-diazahexadecan-16-oate] | 68% | 177.3 nm | 7.41
14 | CCCCCCCCC(CCCCCC)COC(=O)CCCC(CCCCCC)OC(=O)OCCN(CCO)CCN(CC)CC (stereo not drawn) [Example 102, 2-Hexyldecyl 3-ethyl-12-hexyl-6-(2-hydroxyethyl)-10-oxo-9,11-dioxa-3,6-diazahexadecan-16-oate] | 70% | 147.2 nm | 7.57
15 | CCCCCCCCC(CCCCCC)COC(=O)CCCCCC(CCCCCC)OC(=O)OCCN(CCN(CC)CC)C(C)C (stereo not drawn) [Example 116, 2-Hexyldecyl 3-ethyl-12-hexyl-6-isopropyl-10-oxo-9,11-dioxa-3,6-diazaoctadecan-18-oate] | 73% | 76.3 nm | 7.60
16 | CCCCC/C=C\C/C=C\CCCCCCCCC(CCCCCCCC/C=C\C/C=C\CCCCC)OC(=O)CCCN(C)C [Reference Example 1, (6Z,9Z,28Z,31Z)-heptatriaconta-6,9,28,31-tetraen-19-yl-4-(dimethylamino)butanoate, reference compound] | 81% | 69.6 nm | 7.33
17 | CCCCC/C=C\C/C=C\CCCCCCCCN(CCCCCCCC/C=C\C/C=C\CCCCC)C(=O)OCC1CCCN(C)C1 (stereo not drawn) [Reference Example 2, (1-Methylpiperidin-3-yl)methyl di((9Z,12Z)-octadeca-9,12-dien-1-yl)carbamate, reference compound] | 85% | 118.4 nm | 7.23
